Like-named read-outs stand apart in the source and are kept apart here.
Experiments:
[1] = target: T1, androgen receptor (AR) splicing variant AR-v7 (Homo sapiens, UniProt P10275); experiment: Degradation activity on androgen receptor splicing variant AR-v7 in 22RV1 cells (ELISA); assay type: cell-based; conditions: AR-v7 degradation in 22RV1 cells, 48 h, class symbols
T1 construct: The degradation activity of compounds on AR-v7 in 22RV1 cells; host or cells: 22RV1 cells
T1 sequence (P10275 1-644 isoform P10275-3): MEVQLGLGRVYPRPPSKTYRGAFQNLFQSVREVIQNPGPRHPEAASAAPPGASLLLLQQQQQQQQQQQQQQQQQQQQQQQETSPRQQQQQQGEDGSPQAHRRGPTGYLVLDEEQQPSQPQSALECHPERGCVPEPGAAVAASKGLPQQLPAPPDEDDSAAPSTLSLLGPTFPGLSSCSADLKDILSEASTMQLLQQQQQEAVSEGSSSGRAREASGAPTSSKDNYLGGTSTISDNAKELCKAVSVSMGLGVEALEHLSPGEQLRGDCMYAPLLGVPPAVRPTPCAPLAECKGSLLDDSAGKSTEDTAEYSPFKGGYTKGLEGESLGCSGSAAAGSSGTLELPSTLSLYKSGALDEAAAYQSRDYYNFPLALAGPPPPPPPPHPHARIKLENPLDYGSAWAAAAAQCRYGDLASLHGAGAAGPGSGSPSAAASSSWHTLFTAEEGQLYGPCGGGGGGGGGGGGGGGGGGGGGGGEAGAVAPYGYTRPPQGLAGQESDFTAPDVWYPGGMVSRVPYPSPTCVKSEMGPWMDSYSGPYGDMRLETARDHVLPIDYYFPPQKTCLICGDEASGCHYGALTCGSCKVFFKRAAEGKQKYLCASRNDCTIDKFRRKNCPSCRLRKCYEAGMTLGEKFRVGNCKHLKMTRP

[2] = Homo sapiens, 22Rv1, 144 h, read-out: 22RV1 IC50 (nM), 22RV1 cells, 6 days culture, CCK-8, OD 450 nm
[3] = Homo sapiens, 22Rv1, 144 h, read-out: 22RV1 IC50 (nM)
[4] = read-out: 22RV1 IC50, 22RV1 cells, 6 days culture, CCK-8, OD 450 nm

DC50 [1] [nM]	IC50 (22RV1 cells; [2]) [nM]	IC50 (22RV1 cells; [4]) [nM]	Compound	IC50 (22RV1 cells; [3]) [nM]
< 10	< 1	–	Cc1nc(-c2ncc(Oc3ccc(C4(c5ccc(O[C@H]6C[C@H](Nc7ccc8c(c7)C(=O)N(C7CCC(=O)NC7=O)C8=O)C6)cc5)CCOCC4)cc3)cn2)no1 (some centres unmarked) [Example 382, 2-(2,6-dioxopiperidin-3-yl)-5-(((1r,3r)-3-(4-(4-(4-((2-(5-methyl-1,2,4-oxadiazol-3-yl)pyrimidin-5-yl)oxy)phenyl)tetrohydro-2H-pyran-4-yl)phenoxy)cyclobutyl)amino)isoindolin-1,3-dione]	–
< 10	9	–	CC(C)(c1ccc(Oc2cccnc2)cc1)c1ccc(O[C@H]2C[C@H](Nc3ccc4c(c3)C(=O)N(C3CCC(=O)NC3=O)C4=O)C2)cc1 (some centres unmarked) [Example 547]	–
1000 to 5000	1500	–	CC(C)(c1ccc(OCCCCCCCOCCCOCCCNc2ccc3c(c2)C(=O)N(C2CCC(=O)NC2=O)C3=O)cc1)c1ccc(OCc2ccnc(N3CC4(COC4)C3)n2)cc1 (centres unmarked) [Example 62, 5-((3-(3-((7-(4-(2-(4-((2-(2-oxa-6-azaspiro[3.3]heptan-6-yl)pyrimidin-4-yl)methoxy)phenyl)propan-2-yl)phenoxy)heptyl)oxy)propoxy)propyl)amino)-2-(2,6-dioxopiperidin-3-yl)isoindolin-1,3-dione]	–
< 10	–	19	CC(C)(c1ccc(OCc2ccnc(-n3ccnc3)n2)cc1)c1ccc(OC2CC(Nc3ccc4c(c3)C(=O)N(C3CCC(=O)NC3=O)C4=O)C2)cc1 (centres unmarked) [Example 405, 5-((1s,3s)-3-(4-(2-(2-(1H-imidazol-1-yl)pyrimidin-4-yl)methoxy)phenyl)propan-2-yl)phenoxy)cyclobutyl)amino)-2-(2,6-dioxopiperidin-3-yl)isoindol-1,3-dione]	–
< 10	7	–	CC(C)(c1ccc(Oc2cncc(-n3nccn3)n2)cc1)c1ccc(O[C@H]2C[C@H](Nc3ccc4c(c3)C(=O)N(C3CCC(=O)NC3=O)C4=O)C2)cc1 (some centres unmarked) [Example 579]	–
< 10	16	–	CC(C)(c1ccc(Oc2ncnc(N3CC4(COC4)C3)c2F)cc1)c1ccc(O[C@H]2C[C@H](Nc3ccc4c(c3)C(=O)N(C3CCC(=O)NC3=O)C4=O)C2)cc1 (some centres unmarked) [Example 572]	–
< 10	6	–	CC(C)(c1ccc(Oc2cnc(-n3nccn3)nc2)cc1)c1ccc(O[C@H]2C[C@H](Nc3ccc4c(c3)C(=O)N(C3CCC(=O)NC3=O)C4=O)C2)cc1 (some centres unmarked) [Example 436, 5-(((1r,3r)-3-(4-(2-(4-((2-(2H-1,2,3-triazol-2-yl)pyrimidin-5-yl)oxy)phenyl)propan-2-yl)phenoxy)cyclobutyl)amino)-2-(2,6-dioxopiperidin-3-yl)isoindolin-1,3-dione]	–
< 10	10	–	CC(=O)c1cnc(Oc2ccc(C(C)(C)c3ccc(O[C@H]4C[C@H](Nc5ccc6c(c5)C(=O)N(C5CCC(=O)NC5=O)C6=O)C4)cc3)cc2)cn1 (some centres unmarked) [Example 596]	–
11 to 100	44	–	CC(C)(c1ccc(OCCCNc2ccc3c(c2)C(=O)N(C2CCC(=O)NC2=O)C3=O)cc1)c1ccc(OCc2ccnc(N3CCC4(CC3)COC4)n2)cc1 (centres unmarked) [Example 77, 5-((3-(4-(2-(4-((2-(2-oxa-7-azaspiro[3.5]nonan-7-yl)pyrimidin-4-yl)methoxy)phenyl)propan-2-yl)phenoxy)propyl)amino)-2-(2,6-dioxopiperidin-3-yl)isoindolin-1,3-dione]	–
< 10	5	–	CC(C)(c1ccc(OCc2ccnc(C#N)n2)cc1)c1ccc(O[C@H]2C[C@@H](Nc3ccc4c(c3)C(=O)N(C3CCC(=O)NC3=O)C4=O)C2)cc1 (some centres unmarked) [Example 277, 4-((4-(2-(4-((1s,3s)-3-((2-(2,6-dioxopiperidin-3-yl)-1,3-dioxoisoindolin-5-yl)amino)cyclobutyloxy)phenyl)propan-2-yl)phenoxy)methyl)pyrimidin-2-carbonitrile]	–
< 10	19	–	Cc1nnc(-c2cc(Oc3ccc(C(C)(C)c4ccc(O[C@H]5C[C@H](Nc6ccc7c(c6)C(=O)N(C6CCC(=O)NC6=O)C7=O)C5)cc4)cc3)ccn2)o1 (some centres unmarked) [Example 172, 2-(2,6-dioxopyridin-3-yl)-5-(((1r,3r)-3-(4-(2-(4-((2-(5-methyl-1,3,4-oxadiazol-2-yl)pyridin-4-yl)oxy)phenyl)propan-2-yl)phenoxy)cyclobutyl)amino) isoindolin-1,3-dione]	–
< 10	2.5	–	Cc1nc(-c2ncc(Oc3ccc(C4(c5ccc(O[C@H]6C[C@H](Nc7ccc8c(c7)C(=O)N(C7CCC(=O)NC7=O)C8=O)C6)cc5)CCCC4)cc3)cn2)no1 (some centres unmarked) [Example 293]	–
11 to 100	50	–	CC(C)(c1ccc(OCCCNc2ccc3c(c2)C(=O)N(C2CCC(=O)NC2=O)C3=O)cc1)c1ccc(OCc2ccnc(C(N)=O)n2)cc1 (centres unmarked) [Example 182, 4-((4-(2-(4-(3-((2-(2,6-dioxopiperidin-3-yl)-1,3-dioxoisoindolin-5-yl)amino)propoxy)phenyl)propan-2-yl)phenoxy)methyl)pyrimidin-2-carbonylamine]	–
< 10	2	–	Cc1nc(-c2ncc(Oc3ccc(C4(c5ccc(O[C@H]6C[C@H](Nc7ccc8c(c7)C(=O)N(C7CCC(=O)NC7=O)C8=O)C6)cc5)CCCCC4)cc3)cn2)no1 (some centres unmarked) [Example 339]	–
11 to 100	60	–	Cc1nc(COc2ccc(C(C)(C)c3ccc(OCCCNc4ccc5c(c4)C(=O)N(C4CCC(=O)NC4=O)C5=O)cc3)cc2)cs1 (centres unmarked) [Example 225, 2-(2,6-dioxopiperidin-3-yl)-5-((3-(4-(2-(4-((2-methylthiazol-4-yl)methoxy)phenyl)propan-2-yl)phenoxy)propyl)amino)isoindolin-1,3-dione]	–
11 to 100	25	–	CC(C)(c1ccc(OCCCNc2ccc3c(c2)C(=O)N(C2CCC(=O)NC2=O)C3=O)cc1)c1ccc(OCc2ccnc(N3CC4(COC4)C3)n2)cc1 (centres unmarked) [Example 73, 5-((3-(4-(2-(4-((2-(2-oxa-6-azaspiro[3.3]heptan-6-yl)pyrimidin-4-yl)methoxy)phenyl)propan-2-yl)phenoxy)propyl)amino)-2-(2,6-dioxopiperidin-3-yl)isoindolin-1,3-dione]	–
< 10	16	–	O=C1CCC(N2C(=O)c3ccc(NC4CC(Oc5ccc(C6(c7ccc(OCc8ccnc(N9CC%10(COC%10)C9)n8)cc7)CCC6)cc5)C4)cc3C2=O)C(=O)N1 (centres unmarked) [Example 356, 5-((3-(4-(1-(4-((2-(2-oxa-6-azaspiro[3.3]heptane-6-yl)pyrimidin-4-yl)methoxy)phenyl)cyclobutyl)phenoxy)cyclobutyl)amino)-2-(2,6-dioxopiperidin-3-yl)isoindolin-1,3-dione]	–
< 10	–	9	CCC(CC)(c1ccc(Oc2cnc(C(C)O)nc2)cc1)c1ccc(O[C@H]2C[C@@H](Nc3ccc4c(c3)C(=O)N(C3CCC(=O)NC3=O)C4=O)C2)cc1 (some centres unmarked) [Example 133]	–
11 to 100	17	–	Cc1nnc(-c2ncc(Oc3ccc(C4(c5ccc(O[C@H]6C[C@H](Nc7ccc8c(c7)C(=O)N(C7CCC(=O)NC7=O)C8=O)C6)cc5)CC4)cc3)cn2)o1 (some centres unmarked) [Example 379, 2-(2,6-dioxopiperidin-3-yl)-5-(((1r,3r)-3-(4-(1-(4-((2-(5-methyl-1,3,4-oxadiazol-2-yl)pyrimidin-5-yl)oxy)phenyl)cyclopropyl)phenoxy)cyclobutyl)amino)isoindolin-1,3-dione]	–
< 10	6	–	CC(C)(c1ccc(OCc2ccnc(-c3ncon3)n2)cc1)c1ccc(O[C@H]2C[C@@H](Nc3ccc4c(c3)C(=O)N(C3CCC(=O)NC3=O)C4=O)C2)cc1 (some centres unmarked) [Example 276]	–
11 to 100	37	–	CN1CCN(c2nccc(COc3ccc(C(C)(C)c4ccc(OCCCNc5ccc6c(c5)C(=O)N(C5CCC(=O)NC5=O)C6=O)cc4)cc3)n2)CC1 (centres unmarked) [Example 72]	–
11 to 100	56	–	CC(C)(c1ccc(OCCCNc2ccc3c(c2)C(=O)N(C2CCC(=O)NC2=O)C3=O)cc1)c1ccc(OCc2ccnc(-n3ccnc3)n2)cc1 (centres unmarked) [Example 391, 5-((3-(4-(2-(4-((2-(1H-imidazol-1-yl)pyrimidin-4-yl)methoxy)phenyl)propan-2-yl)phenoxy)propyl)amino)-2-(2,6-dioxopiperidin-3-yl)isoindol-1,3-dione]	–
< 10	0.3	–	CC(=O)c1ccc(Oc2ccc(C3(c4ccc(O[C@H]5C[C@H](Nc6ccc7c(c6)C(=O)N(C6CCC(=O)NC6=O)C7=O)C5)cc4)CCOCC3)cc2)nn1 (some centres unmarked) [Example 106]	–

Compound	DC50 [1] [nM]	IC50 (22RV1 cells; [2]) [nM]	IC50 (22RV1 cells; [4]) [nM]	IC50 (22RV1 cells; [3]) [nM]
Cc1nc(-c2cccc(Oc3ccc(C(C)(C)c4ccc(O[C@H]5C[C@H](Nc6ccc7c(c6)C(=O)N(C6CCC(=O)NC6=O)C7=O)C5)cc4)cc3)n2)no1 (some centres unmarked) [Example 421]	< 10	–	–	3
CC(=O)c1nccc(COc2ccc(C(C)(C)c3ccc(O[C@H]4C[C@@H](Nc5ccc6c(c5)C(=O)N(C5CCC(=O)NC5=O)C6=O)C4)cc3)cc2)n1 (some centres unmarked) [Example 491]	< 10	–	–	4
